This passage reports EC50 results from patent US12497405B2, “Bicyclic heterocycle compounds methods of use thereof for the treatment of herpes viruses” (Merck Sharp & Dohme LLC, priority 2019, dated 2025).

What all share (assay type): cell-based
One assay deals with HSV2. In words: Viral qPCR assay, HSV2. As to conditions: Human alphaherpesvirus 2, 72 h, infected cells, viral genome copies by qPCR normalized to PPIA, read-out: HSV2 Cell EC50. On the procedure: (§1) MRC5 cells, Vero cells, and MeWo cells were obtained from ATCC, and were maintained at 37° C./5% CO2/90% relative humidity in Minimal Essential Medium with 10% fetal bovine serum, […] L-glutamine, 100 units/ml penicillin and 100 ug/ml streptomycin. Assay plates were prepared by dispensing compounds dissolved in DMSO into wells of 384 well collagen-coated plates using an ECHO acoustic dispenser. Each test compound was tested in a 10-point, serial 3-fold dilution. Controls included uninfected cells and infected cells treated only with DMSO. Assays were initiated by mixing selected cells, in suspension, with virus, and dispensing 50 μl/well infected cells to pre-plated compounds. Plates were incubated at 37° C./5% CO2/90% relative humidity for ˜72 hrs to permit genomic replication, and infected cells were lysed by the addition of an equal volume of lysis buffer (10 mM Tris-HCl, pH8, 50 mM KCl, 2 mM MgCl2, 0.45% NP-40, 0.45% Tween-20, and 100 µg/ml proteinase K). An aliquot of the lysate was then transferred to a 384-well PCR plate and incubated at 56° C. for 1 hour, and then at 95° C. for 10 minutes. Levels of the selected viral gene and of the cellular control, PPIA, were measured in separate 10 μl qPCR assays using TaqMan® Gene Expression Master Mix (Applied Biosystems), and an 7900HT Fast Real-Time PCR System with 384-Well Block Module. 7-point, serial 10-fold dilutions of a plasmid standard were run on each plate to generate a standard curve, and genome copies numbers were calculated by plotting experimental Ct onto linear regression of the standard curve. Viral genome copy numbers were normalized by cellular control copy number, and compound effects were normalized to the window defined by the controls. Calculated % effects were fit using a 4-parameter algorithm, and EC50 was reported.
For orientation: Real-time PCR tracks product formation cycle by cycle.

A further assay concerns HSV1. As to the kind of experiment: Viral qPCR assay, HSV1. As to conditions: Human alphaherpesvirus 1, 72 h, infected cells, viral genome copies by qPCR normalized to PPIA, read-out: HSV1 Cell EC50. Here is the method:
as §1

Another assay relates to CMV. In words: Viral qPCR assay, CMV. Particulars: Human betaherpesvirus 5, 72 h, infected cells, viral genome copies by qPCR normalized to PPIA, read-out: CMV Cell EC50. Here is the method: as §1

For orientation: EC50 means the concentration giving half of the maximal effect. As for `Cc1nc2cc(-c3cn4ccncc4n3)c(O[C@H]3CCN4C(=O)OC[C@@H]4C3)cc2c(=O)n1Cc1ccc(Cl)cc1` [Example 91], the EC50 worked out at 602 nM in the assay with HSV2, 527 nM in the assay with HSV1 and 479 nM in the assay with CMV.

Turning to `COc1ccc(-c2cc3nc(C)n(Cc4ccc(Cl)cc4)c(=O)c3cc2O[C@H]2CCN3C(=O)OC[C@@H]3C2)nc1` [Example 112], the 50% effective concentration (EC50) in the assay with HSV2 was 81 nM; with HSV1, 148 nM; with CMV it was 142 nM.

For `Cc1nc2cc(-c3cn4ccccc4n3)c(O[C@H]3CCN4C(=O)OC[C@@H]4C3)cc2c(=O)n1Cc1ccc(Cl)cc1` [Example 104], the concentration for a half-maximal effect (EC50) in the assay on HSV2 is 32 nM; with HSV1 it was 45 nM; in the assay with CMV, 99 nM.

In the case of `Cc1nc2cc(-c3cc4ccccn4n3)c(O[C@H]3CCN4C(=O)OC[C@@H]4C3)cc2c(=O)n1Cc1ccc(Cl)cc1` [Example 15], the results for the concentration giving a half-maximal response (EC50) with HSV2, in the assay with HSV1 and in the assay on CMV were 41 nM, 74 nM and 60 nM, respectively.

As to `COc1ncc(-c2cc3nc(C)n(Cc4ccc(Cl)cc4)c(=O)c3cc2O[C@H]2CCN3C(=O)OC[C@@H]3C2)c(C)n1` [Example 93], the concentration giving a half-maximal response (EC50) with HSV2 came out at 3380 nM; with HSV1, 2590 nM; in the assay on CMV, 1430 nM.

Consider `Cc1nc2cc(-c3cnc(OC4CCOCC4)nc3)c(O[C@H]3CCN4C(=O)OC[C@@H]4C3)cc2c(=O)n1Cc1ccc(Cl)cc1` [Example 109], for which the concentration giving a half-maximal response (EC50) in the assay with HSV2 came out at 153 nM; in the assay with HSV1, 413 nM; with CMV, 465 nM.

On to `O=C1OC[C@@H]2C[C@@H](Oc3cc4c(=O)n(Cc5ccc(Cl)cc5)c(OCCN5CCC5)nc4cc3-c3cnn(C(F)F)c3)CCN12` [Example 134], for which the results for the concentration giving a half-maximal response (EC50) in the assay on HSV2, with HSV1 and with CMV were 98 nM, 171 nM and 119 nM, respectively.

`O=C1OC[C@@H]2C[C@@H](Oc3cc4c(=O)n(Cc5ccc(Cl)cc5)c(CN5CCOCC5)nc4cc3-c3cnn(C(F)F)c3)CCN12` [Example 125]: the concentration for a half-maximal effect (EC50) in the assay on HSV2 was found to be 1280 nM; in the assay with HSV1, 3830 nM; with CMV, 4240 nM.

Regarding `Cc1nc2cc(-c3cc4n(n3)CCN(C3CCOCC3)C4)c(O[C@H]3CCN4C(=O)OC[C@@H]4C3)cc2c(=O)n1Cc1ccc(Cl)cc1` [Example 108], the concentration giving a half-maximal response (EC50) with HSV2 was found to be 87 nM; in the assay with HSV1, 198 nM; in the assay on CMV it was 201 nM.

On to `COc1cnnc(-c2cc3nc(C)n(Cc4ccc(Cl)cc4)c(=O)c3cc2O[C@H]2CCN3C(=O)OC[C@@H]3C2)c1` [Example 132], for which the 50% effective concentration (EC50) came out at 822 nM in the assay with HSV2, 1470 nM with HSV1 and 1470 nM in the assay on CMV.

For `N[C@H](Cc1nc2cc(-c3cnn(C(F)F)c3)c(O[C@H]3CCN4C(=O)OC[C@@H]4C3)cc2c(=O)n1Cc1ccc(Cl)cc1)C(F)(F)F` [Example 156], the half-maximal effective concentration (EC50) in the assay with HSV2 was found to be 93 nM; with HSV1, 176 nM; in the assay on CMV it was 140 nM.

`Cc1nc2cc(-c3cnc(C(F)F)nc3)c(O[C@H]3CCN4C(=O)OC[C@@H]4C3)cc2c(=O)n1Cc1ccc(Cl)cc1` [Example 124]: the values for the concentration for a half-maximal effect (EC50) in the assay with HSV2, in the assay with HSV1 and with CMV were 120 nM, 198 nM and 163 nM, respectively.

For the compound `O=C1OC[C@@H]2C[C@@H](Oc3cc4c(=O)n(Cc5ccc(Cl)cc5)c(CN5CCC5)nc4cc3-c3cnn(C(F)F)c3)CCN12` [Example 129], the EC50 with HSV2 was found to be 135 nM; in the assay on HSV1 it was 178 nM; in the assay with CMV, 115 nM.

As to `N[C@@H](Cc1nc2cc(-c3cnn(C(F)F)c3)c(O[C@H]3CCN4C(=O)OC[C@@H]4C3)cc2c(=O)n1Cc1ccc(Cl)cc1)C(F)(F)F` [Example 157], the results for the 50% effective concentration (EC50) with HSV2, in the assay with HSV1 and in the assay with CMV were 81 nM, 176 nM and 170 nM, respectively.

With `Cc1nc2cc(-c3cc4cncnn4c3)c(O[C@H]3CCN4C(=O)OC[C@@H]4C3)cc2c(=O)n1Cc1ccc(Cl)cc1` [Example 107], the concentration giving a half-maximal response (EC50) in the assay with HSV2 is 31 nM; in the assay on HSV1, 52 nM; in the assay on CMV, 52 nM.

Consider `Cc1nc2cc(-c3ccncn3)c(O[C@H]3CCN4C(=O)OC[C@@H]4C3)cc2c(=O)n1Cc1ccc(Cl)cc1` [Example 130], for which the half-maximal effective concentration (EC50) came out at 287 nM in the assay with HSV2, 167 nM in the assay with HSV1 and 190 nM with CMV.
